Measured values from patent publication US20250134844A1, “THERAPEUTIC USE OF PLEUROMUTILINS” (Nabriva Therapeutics GmbH, priority 2022, published 2025).
≈ marks a conversion by molar mass, not a printed value. Read-outs that look alike come from different tables or passages of the source.

Legend:
[1] = system: Borreliella spp.; experiment: MIC by broth microdilution against Borreliella isolates; format: cell-based; conditions: range over 6 isolates (5 B. burgdorferi, 1 B. garinii)
Description: Minimal inhibitory concentrations (MIC) were determined against five (n=5) Borreliella burgdorferi isolates (ATCC 51990, 55131, 35211, 35210, 53899) and one (n=1) Borreliella garinii isolate (ATCC 51991) by broth microdilution technique (Dever, L. L., Jorgensen, J. H., Barbour, A. G. In vitro antimicrobial susceptibility testing of Boreliella burgdorferi: a microdilution MIC method and time-kill studies. J Clin Microbiol. 30(10), 2692-2697. (1992) doi: 10.1128/jcm.30.10.2692-2697.1992; Feng, J., Wang, T., Shi, W., et al. Identification of novel activity against Boreliella burgdorferi persisters using an FDA approved drug library. Emerg Microb Infect 3, e49 (2014) doi: 10.1038/emi.2014.53). The general procedures for broth microdilution were done according to the CLSI guidelines M7 and M100-S31 (CLSI. (2018) Methods for dilution antimicrobial susceptibility tests for bacteria that grow aerobically; Eleventh edition. M07.; CLSI. (2021) Performance Standards for Antimicrobial Susceptibility Testing; Thirty-first Edition. M100-S31).
Briefly, Borreliella spp. were grown at 36° C. under microaerophilic conditions in BSK II medium until the logarithmic or stationary growth phase was reached. The growth phase was determined by semiquantitative measurement of active and dormant cells by fluorescence microscopy of cells stained with the fluorescent dyes SYBR Green I and propidium iodide. An inoculum of 10^5−10^6 spirochetes/mL was used to inoculate broth microdilution plates containing serially 2-fold diluted test compounds.

[2] = system: T. pallidum; experiment: Rabbit infectivity test (RIT) with popliteal lymph nodes; format: in vivo; conditions: for orchitis or seroconversion (VDRL, TPPA) of RIT rabbits: 3-months observation period, lymph nodes from treated test rabbits; for seroconversion in FTA-ABS test: RIT rabbits, control animals 3+ reactivity or higher
Excerpt: The test rabbits from Example 3 were used for a subsequent study in a RIT, wherein samples from the popliteal lymph nodes were transferred to new (naïve) rabbits, which were subsequently analyzed for disease symptoms and tested serologically (Haynes, A. M., Giacani, L., Vall Mayans, M., et al. Efficacy of linezolid on Treponema pallidum, the syphilis agent: A preclinical study. eBioMedicine 65, 103281 (2021). Doi: 10.1016/j.ebiom.2021.103281).
Following euthanasia, popliteal lymph nodes (LN) from all the rabbits in the Lefamulin, BPG, and control groups were harvested. Lymph nodes from each rabbit were pooled and homogenized in a solution containing equal amounts of sterile saline and serum from an uninfected rabbit. One milliliter of homogenate from each test rabbit was then inoculated into the left testicle of a naïve rabbit to perform the RIT. For the rabbit, which died at day 3 post-treatment initiation, lymph nodes were harvested and transferred to a RIT rabbit within 1 hour after the animal's death.
Inoculated animals were checked for orchitis twice weekly. Serum was collected monthly for three months and analyzed with two different serological tests, i.e. VDRL (Venereal Disease Research Laboratory; Becton-Dickinson, Franklin Lanes, NJ) and TPPA (Treponema pallidum Particle Agglutination; Fujirebio, Malvern, PA). Also an FTA-ABS test (Fluorescent Treponemal Antibody-Absorption; Trinity Biotech, Jamestown, NY) was performed.

[3] = system: T. pallidum cells (Chicago strain); experiment: Rabbit model of intradermal Treponema pallidum infection (syphilis); format: in vivo; conditions: for lesion progression past the initial state of mild induration: 40 days observation; for T. pallidum mRNA (tp0574 message normalized to HPRT) in lesion biopsies: day 3 post-treatment initiation; for T. pallidum cells in lesion aspirates by DFM: since day 3 post-treatment initiation
Description: The preclinical study to test Lefamulin against T. pallidum was conducted in analogy to an investigation of the antibiotic compound linezolid (Haynes, A. M., Giacani, L., Vall Mayans, M., et al. Efficacy of linezolid on Treponema pallidum, the syphilis agent: A preclinical study. eBioMedicine 65, 103281 (2021). doi: 10.1016/j.ebiom.2021.103281).
In the syphilis infection model, each animal was infected intradermally (ID) with 10^6 freshly harvested, viable and infectious T. pallidum cells (Chicago strain) per site of infection on 10 sites on their shaved backs to induce appearance of primary syphilis lesions. Treponemal viability prior to ID infection was assessed by dark field microscopy (DFM). A dose of infectious treponemes (10^6/site of infection) induces the appearance of an erythematous lesion at the inoculation site within ˜5 days post-inoculation. Overall, the arch of lesion progression from the erythematous stage to the indurated, ulcerated, and healed stages encompasses approximately 4 weeks.
Herein, three groups of three rabbits were infected. Three animals were treated orally with 70 mg/kg Lefamulin every 12 h for 3 days (day 7 to day 10 post-infection). As positive control group, another three animals were treated with Benzathine penicillin G (BPG) as single intramuscular (IM) injection (300,000 units; equivalent w/w to 4.8 million units for humans). One group (n=3) served as untreated control. The cutaneous lesions were monitored macroscopically for clinical development, documented by photography on regular basis and measured for their diameter every day for a period of 40 days.
Treponemal burden within these lesions was assessed by taking needle aspirates from the lesions and analyzing the aspirates for pathogen cell count using DFM as well as quantification of treponemal DNA extracted from the aspirates at day 3, 8, 12, and 16 Additionally, mRNA extracted from lesion biopsies obtained post-treatment initiation was also quantified as a surrogate of viability. The gene copy number of the T. pallidum tp0574 gene was quantified by qPCR. Additionally, the tp0574 gene message was normalized to the message of the rabbit housekeeping gene HPRT to evaluate the burden of viable T. pallidum cells within lesion biopsies.

[4] = system: T. pallidum SS14 strain; experiment: In vitro susceptibility in co-culture with rabbit Sf1Ep cells, qPCR of tp0574 gene; format: cell-based, Treponema pallidum
Description: (§1) The in vitro susceptibility determination essentially followed the protocol described by Edmondson et al. (Edmondson, D. G., Hu, B., Norris, S. J. Long-Term In Vitro Culture of the Syphilis Spirochete Treponema pallidum subsp. pallidum. mBio 9(3) e01153-18. (2018). doi: 10.1128/mBio.01153-18).
(§2) Briefly, 3×10^3 rabbit Sf1Ep cells seeded in 96-well microtiter plates in 150 μl of culture media, were inoculated with the T. pallidum strains Chicago and SS14 at an inoculum of 3×10^3 (counted using dark field microscopy) in TpCM-2 medium that was equilibrated overnight at 34° C. in a microaerophilic environment consisting of 1.5% O2, 3.5% CO2 and 95% N2 supplied as a tri-gas mix. Lefamulin and penicillin G were added from 100-fold concentrated stocks in water to achieve the final test concentrations of 5, 2.5, 0.5, 0.1, 0.02. 0.01. 0.005, and 0.0025 μg/ml for Lefamulin and 60 ng/ml for penicillin G. Then the culture plates were incubated at 34° C. in a tri-gas incubator. Cells were then lysed and the DNA extracted using a Quick DNA-96 kit followed by the quantification of the treponemes by quantitative real-time PCR in triplicate targeting the tp0574 gene (Giacani L, Molini B, Godornes C, Barrett L, Van Voorhis WC, Centurion-Lara A, et al. Quantitative analysis of tpr gene expression in Treponema pallidum isolates: differences among isolates and correlation with T-cell responsiveness in experimental syphilis. Infect Immun. 75(1), 104-12 (2007). doi: 10.1128/IAI.01124-06).

[5] = system: T. pallidum Chicago strain; experiment: as above; format: cell-based, Treponema pallidum
Description: as §1, §2

[6] = 192 h, stationary growth phase cultures, read after 8 days, read-out: MIC (μg/mL) for Stationary Growth Phase Culture (n = 6)
[7] = logarithmic growth phase cultures, read after 5 or 6 days, read-out: MIC (μg/mL) for Logarithmic Growth Phase Culture (n = 6)

## CC1(C)S[C@@H]2[C@H](NC(=O)[C@H](N)c3ccc(O)cc3)C(=O)N2[C@H]1C(=O)O [Amoxicillin]
[1]; [6]
  MIC: 0.03 to 0.12 µg/mL (≈ 0.0821 to 0.328 µM)
[1]; [7]
  MIC: 0.03 to 0.12 µg/mL (≈ 0.0821 to 0.328 µM)

## CC[C@H]1OC(=O)[C@H](C)[C@@H](O[C@H]2C[C@@](C)(OC)[C@@H](O)[C@H](C)O2)[C@H](C)[C@@H](O[C@@H]2O[C@H](C)C[C@H](N(C)C)[C@H]2O)[C@](C)(O)C[C@@H](C)CN(C)[C@H](C)[C@@H](O)[C@]1(C)O [Azithromycin]
[1]; [6]
  MIC: 0.001 to 0.004 µg/mL (≈ 0.00134 to 0.00534 µM)
[1]; [7]
  MIC: 0.001 to 0.004 µg/mL (≈ 0.00134 to 0.00534 µM)

## CC1(C)S[C@@H]2[C@H](NC(=O)Cc3ccccc3)C(=O)N2[C@H]1C(=O)O.CC1(C)S[C@@H]2[C@H](NC(=O)Cc3ccccc3)C(=O)N2[C@H]1C(=O)O.c1ccc(CNCCNCc2ccccc2)cc1 [BPG, Benzathine penicillin G]
[2]
  orchitis or seroconversion (VDRL, TPPA) of RIT rabbits: None of the animals developed orchitis or seroconverted
  seroconversion in FTA-ABS test: none of the BGP or Lefamulin treated animals seroconverted
[3]
  lesion progression past the initial state of mild induration: None of the lesions in these two groups progressed past the initial state of mild induration
  T. pallidum mRNA (tp0574 message normalized to HPRT) in lesion biopsies: absent
  T. pallidum cells in lesion aspirates by DFM: no treponemal bacteria could be found
[3]; day 9 post-BPG administration
  measured sites resolved: 95%
[3]; day 12 post-treatment
  measured sites resolved: 100%

## CO/N=C(\C(=O)N[C@@H]1C(=O)N2C(C(=O)O)=C(CSc3nc(=O)c(=O)[nH]n3C)CS[C@H]12)c1csc(N)n1 [Ceftriaxone]
[1]; [6]
  MIC: 0.004 to 0.03 µg/mL (≈ 0.00721 to 0.0541 µM)
[1]; [7]
  MIC: 0.004 to 0.016 µg/mL (≈ 0.00721 to 0.0289 µM)

## CO/N=C(\C(=O)N[C@@H]1C(=O)N2C(C(=O)O)=C(COC(N)=O)CS[C@H]12)c1ccco1 [Cefuroxime]
[1]; [6]
  MIC: 0.016 to 0.25 µg/mL (≈ 0.0377 to 0.589 µM)
[1]; [7]
  MIC: 0.016 to 0.25 µg/mL (≈ 0.0377 to 0.589 µM)

## C[C@H]1c2cccc(O)c2C(=O)C2=C(O)[C@]3(O)C(=O)C(C(N)=O)=C(O)[C@@H](N(C)C)[C@@H]3[C@@H](O)[C@@H]21 [Doxycycline]
[1]; [6]
  MIC: 0.03 to 0.5 µg/mL (≈ 0.0675 to 1.13 µM)
[1]; [7]
  MIC: 0.03 to 0.5 µg/mL (≈ 0.0675 to 1.13 µM)

## CC[C@H]1OC(=O)[C@H](C)[C@@H](O[C@H]2C[C@@](C)(OC)[C@@H](O)[C@H](C)O2)[C@H](C)[C@@H](O[C@@H]2O[C@H](C)C[C@H](N(C)C)[C@H]2O)[C@](C)(O)C[C@@H](C)C(=O)[C@H](C)[C@@H](O)[C@]1(C)O [Erythromycin]
[1]; [6]
  MIC: 0.001 to 0.004 µg/mL (≈ 0.00136 to 0.00545 µM)
[1]; [7]
  MIC: 0.002 to 0.016 µg/mL (≈ 0.00273 to 0.0218 µM)

## C=C[C@]1(C)C[C@@H](OC(=O)CS[C@@H]2CC[C@@H](N)C[C@H]2O)[C@]2(C)[C@H](C)CC[C@]3(CCC(=O)[C@H]32)[C@@H](C)[C@@H]1O [Lefamulin, 14-O-{[(1R, 2R, 4R)-4-amino-2-hydroxy-cyclohexylsulfanyl]-acetyl}-mutilin]
[2]
  orchitis or seroconversion (VDRL, TPPA) of RIT rabbits: None of the animals developed orchitis or seroconverted
  seroconversion in FTA-ABS test: none of the BGP or Lefamulin treated animals seroconverted
[1]; [6]
  MIC: 0.001 to 0.008 µg/mL (≈ 0.00197 to 0.0158 µM)
[1]; [7]
  MIC: 0.001 to 0.008 µg/mL (≈ 0.00197 to 0.0158 µM)
[4]; SS14 strain, at ≥10 ng/mL Lefamulin, day 7, untreated control 894 copies/μL
  mean copy number of tp0574 gene: 33-124 copies/μL
[4]; T. pallidum SS14 strain, inhibited at 10-20 ng/mL or higher
  inhibiting Lefamulin concentration: 10 to 20 ng/mL
[5]; Chicago strain, at ≥10 ng/ml Lefamulin, day 7, untreated control 13,052 copies/μL
  mean copy number of tp0574 gene: 324-403 copies/μL
[5]; Treponema pallidum, 168 h, T. pallidum Chicago strain, day 7, read-out: minimal inhibitory concentration (MIC)
  MIC: ≥ 0.01 µg/mL
[3]; 70 mg/kg orally every 12 h, day 3 of treatment, most likely inhalation of Lefamulin caused by reflux
  death in treated group: one rabbit died
[3]
  lesion progression past the initial state of mild induration: None of the lesions in these two groups progressed past the initial state of mild induration
  T. pallidum mRNA (tp0574 message normalized to HPRT) in lesion biopsies: absent
  T. pallidum cells in lesion aspirates by DFM: no treponemal bacteria could be found
[3]; day 9 post-treatment initiation
  lesions still measurable: 14%
[3]; day 10 post-infection, end of treatment, p<0.05
  lesion diameter compared to the untreated controls: significantly lower
[3]; post-treatment initiation
  day post-treatment initiation by which no induration could be measured at any site: ≤ 13 days

## C[C@H]1COc2c(N3CCN(C)CC3)c(F)cc3c(=O)c(C(=O)O)cn1c23 [Levofloxacin]
[1]; [6]
  MIC: 2 to 8 µg/mL (≈ 5.53 to 22.1 µM)
[1]; [7]
  MIC: 2 to 4 µg/mL (≈ 5.53 to 11.1 µM)

## C=C[C@]1(C)C[C@@H](OC(=O)CO)[C@]2(C)[C@H](C)CC[C@]3(CCC(=O)[C@H]32)[C@@H](C)[C@@H]1O [Pleuromutilin]
[1]; [6]
  MIC: 0.12 to 2 µg/mL (≈ 0.317 to 5.28 µM)
[1]; [7]
  MIC: 0.12 to 1 µg/mL (≈ 0.317 to 2.64 µM)

## C=C[C@]1(C)C[C@@H](OC(=O)CSCCN(CC)CC)[C@]2(C)[C@H](C)CC[C@]3(CCC(=O)[C@H]32)[C@@H](C)[C@@H]1O [Tiamulin]
[1]; [6]
  MIC: 0.03 to 0.25 µg/mL (≈ 0.0608 to 0.506 µM)
[1]; [7]
  MIC: 0.03 to 0.5 µg/mL (≈ 0.0608 to 1.01 µM)

## CC1(C)S[C@@H]2[C@H](NC(=O)Cc3ccccc3)C(=O)N2[C@H]1C(=O)O [penicillin G]
[4]; SS14 strain, penicillin G 60 ng/mL
  copy number of tp0574 gene: 91 copies/μL
[5]; Chicago strain, penicillin G 60 ng/mL
  copy number of tp0574 gene: 247 copies/μL
